Experimental data: patent EP4667483A1, “HUMAN TRANSFERRIN RECEPTOR-BINDING PEPTIDE” (JCR Pharmaceuticals Co., Ltd., priority 2023, dated 2024)
Numbered stars: 1 amine (or outer) side, 2 acyl side, 3 side chain; on linkers, the order of the positions; unused ones are H or OH. Bridge positions count the residues as written; N and C are the ends. Square brackets hold non-standard residues; d marks the D form. Peptide text beside a SMILES is read from it. * marks the point of attachment. Trp(1-CH2COOH) = N[C@@H](Cc1cn(CC(=O)O)c2ccccc12)C(=O)O; NMePhe(4-COOH) = CN[C@@H](Cc1ccc(C(=O)O)cc1)C(=O)O; X1 = O=C([C@H](Cc1cccc(C(=O)[*:3])c1)N[*:1])[*:2]; Nle(6-morpholino) = N[C@@H](CCCCN1CCOCC1)C(=O)O; Phe(3-COOH) = N[C@@H](Cc1cccc(C(=O)O)c1)C(=O)O; Trp(7-aza) = N[C@@H](Cc1c[nH]c2ncccc12)C(=O)O; NMePhe(3-Cl) = CN[C@@H](Cc1cccc(Cl)c1)C(=O)O; 3Pal(6-NH2) = Nc1ccc(C[C@H](N)C(=O)O)cn1; NMeW = CN[C@@H](Cc1c[nH]c2ccccc12)C(=O)O; NMeY = CN[C@@H](Cc1ccc(O)cc1)C(=O)O; Nva(3-Et) = CCC(CC)[C@H](N)C(=O)O; NMeF = CN[C@@H](Cc1ccccc1)C(=O)O; 4Pal = N[C@@H](Cc1ccncc1)C(=O)O; PEG4 = NCCOCCOCCOCCOCCC(=O)O; Carboxymethyl = O=C(O)C*

Columns and labels:
[1] = biological target: T1, human transferrin receptor (hTfR) (Homo sapiens, UniProt P02786); assay: SPR measurement under pH 6.0 conditions (Biacore T200, NTA chip, immobilized hTfR); format: binding; conditions: read-out: hTfR SPR pH6.0 KD
Description: (§1) Molecular interactions between the synthesized peptides and the transferrin receptor (hTfR) were evaluated by surface plasmon resonance (SPR) using the following method. The specific assay procedure is described below.
An NTA sensor chip (Cytiva) was inserted in a Biacore T200 (Cytiva), a priming operation was performed 3 times with a running buffer: HBS-P+ pH 6.0 (Cytiva), and an equilibrium state was created at a flow rate of 30 µL/min. A ligand immobilization operation was carried out at a flow rate of 10 µL/min.
The surface of the NTA sensor chip was washed with 350 mM EDTA solution, nickel ions were loaded into the carbomethyldextran chains of the sensor chip with a 500 µM aqueous nickel chloride solution, and then washing was performed with 3 mM EDTA solution. After mixing 50 µL of each of 60 mM EDC solution (Cytiva) and 650 mM NHS solution (Cytiva), the mixture was reacted for 420 seconds at a flow rate of 10 µL/min. 150 µL of 0.2 µM hTfR solution was prepared by diluting with 10 mM acetic acid solution (pH 5.0), and reacted for 420 seconds at a flow rate of 10 µL/min to immobilize hTfR on the NTA sensor chip. For the human transferrin receptor (hTfR), the recombinant hTfR described in Example 2 of WO2018/124121 was used. After immobilization, capping was performed by reacting with 1.0 M ethanolamine aqueous solution (Cytiva) at a flow rate of 10 µL/min for 420 seconds. Peptide lysate prepared in DMSO to 10 mM was diluted with the running buffer to a final concentration of 10 µM peptide lysate, and then peptide solutions of 250 nM, 125 nM, 62.5 nM, 25 nM, and 12.5 nM were prepared. The kinetics of the peptide against hTfR was obtained by SPR measurement using the above samples.
(§2) The kinetic evaluation model was single-cycle kinetics, and curve fitting was performed using Biacore T200 Evaluation Software Version 3.0 (Cytiva). The binding of the peptide to hTfR was evaluated by performing curve fitting on the obtained sensorgram by the least squares method and obtaining the kon value, the koff value, and the KD value.

[2] = biological target: T1, human transferrin receptor (hTfR); assay: SPR measurement under pH 7.4 conditions (Biacore T200, CM3 chip, hTfR captured by His Tag antibody); format: binding; conditions: read-out: hTfR SPR pH7.4 KD
Description: as §1
An CM3 sensor chip (Cytiva) was inserted into BiacoreT200 (Cytiva), then a priming operation was performed three times by using a running buffer: HBS-P+, pH7.4 (Cytiva), and an equilibrium state was created at a flow rate of […]. Ligand immobilization was performed at a flow rate of 10 µL/min. After mixing 50 µL each of 60 mM EDC solution (Cytiva) and 650 mM NHS solution (Cytiva), the mixture was reacted at a flow rate of 10 µL/min for 420 seconds. 150 µL of […] THE His Tag Antibody, mAb, Mouse (GenScript) was prepared by diluting with 10 mM acetic acid solution (pH 5.0), and reacted at a flow rate of 10 µL/ min for 420 seconds. Then, THE His Tag Antibody, mAb, Mouse (GenScript) was immobilized as a capture molecule on the CM3 sensor chip. After immobilization, capping was performed by reacting with 1.0 M ethanolamine solution (Cytiva) at a flow rate of 10 µL/min for 420 seconds. 300 nM hTfR was captured at a flow rate of 10 µL/min, a peptide solution prepared at 10 mM in DMSO was diluted with running buffer to achieve a final concentration of 10 µM, and peptide solutions at 250 nM, 125 nM, 62.5 nM, 25 nM, and 12.5 nM were prepared. . The peptide samples were reacted at a flow late of 30 µL/min for 120 seconds, followed by dissociation for 600 seconds. The kinetics of the peptide against hTfR was obtained by SPR measurement for the above samples.
as §2

[3] = SPR, pH 6.0, peptide with the linker named in the table
[4] = SPR, pH 7.4, peptide with the linker named in the table

T1 sequence (P02786 whole entry): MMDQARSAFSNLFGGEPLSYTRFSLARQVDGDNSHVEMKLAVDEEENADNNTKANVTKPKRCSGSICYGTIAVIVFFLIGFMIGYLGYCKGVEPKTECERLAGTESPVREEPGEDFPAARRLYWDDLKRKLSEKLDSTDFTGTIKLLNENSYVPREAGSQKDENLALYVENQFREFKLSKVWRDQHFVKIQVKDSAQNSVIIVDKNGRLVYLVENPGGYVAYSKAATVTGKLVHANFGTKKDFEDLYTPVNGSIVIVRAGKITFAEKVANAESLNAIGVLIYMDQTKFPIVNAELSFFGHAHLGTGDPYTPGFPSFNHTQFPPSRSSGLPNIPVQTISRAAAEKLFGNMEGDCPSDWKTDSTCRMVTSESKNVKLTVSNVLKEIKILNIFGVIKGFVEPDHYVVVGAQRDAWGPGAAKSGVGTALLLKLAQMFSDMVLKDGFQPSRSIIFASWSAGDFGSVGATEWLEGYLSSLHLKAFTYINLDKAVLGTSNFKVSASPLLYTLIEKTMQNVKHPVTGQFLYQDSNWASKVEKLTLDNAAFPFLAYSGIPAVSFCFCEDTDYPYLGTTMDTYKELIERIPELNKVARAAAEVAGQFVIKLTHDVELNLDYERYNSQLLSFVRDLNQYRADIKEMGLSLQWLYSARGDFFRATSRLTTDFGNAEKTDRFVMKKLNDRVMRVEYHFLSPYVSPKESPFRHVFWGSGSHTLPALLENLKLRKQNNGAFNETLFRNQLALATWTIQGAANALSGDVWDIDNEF

SMILES	Kd ([1]; pH 6.0, single-cycle kinetics) [nM]	Kd ([2]; pH 7.4, single-cycle kinetics) [nM]	Kd [1, 3] [nM]	Kd [2, 4] [nM]
CC[C@H](C)[C@@H]1NC(=O)[C@H](Cc2ccc(OC)cc2)NC(=O)[C@H](Cc2ccc(N)nc2)NC(=O)[C@H](CC(N)=O)NC(=O)[C@H](Cc2c[nH]c3ncccc23)NC(=O)[C@H](C(C)C)NC(=O)[C@H](Cc2cccc(Cl)c2)N(C)C(=O)[C@H](C(C)C)NC(=O)[C@H](C)NC(=O)CSC[C@@H](C(=O)NCCOCCOCCOCCOCCC(N)=O)NC(=O)[C@H](Cc2ccc(O)cc2)N(C)C(=O)[C@H](Cc2ccncc2)NC(=O)[C@H](CCCCN2CCOCC2)NC(=O)[C@H](CCCCN2CCOCC2)NC(=O)[C@H]([C@@H](C)CC)NC1=O [compound 4] ({CH2CO}-AV[NMePhe(3-Cl)]V[Trp(7-aza)]N[3Pal(6-NH2)]Y(Me)II[Nle(6-morpholino)][Nle(6-morpholino)][4Pal][NMeY]C[PEG4]-NH2; thioether N-15)	29.7	2.19	–	–
CC[C@H](C)[C@@H]1NC(=O)[C@H](Cc2ccc(OCC(=O)N3CCN(CC(=O)O)CC3)cc2)NC(=O)[C@H](Cc2ccc(O)cc2)NC(=O)[C@H](CC(N)=O)NC(=O)[C@H](Cc2cn(CC(=O)O)c3ccccc23)NC(=O)[C@H](C(C)C)NC(=O)[C@H](Cc2cccc(Cl)c2)N(C)C(=O)[C@H](C(C)C)NC(=O)[C@H](C)NC(=O)CSC[C@@H](C(=O)NCCOCCOCCOCCOCCC(N)=O)NC(=O)[C@H](Cc2ccc(O)cc2)N(C)C(=O)[C@H](Cc2ccncc2)NC(=O)[C@H](CCCCN2CCOCC2)NC(=O)[C@H](CCC(=O)NCCOCCOCCOCCOCCOCCOCCOCCOC)NC(=O)[C@H]([C@@H](C)CC)NC1=O [compound 22]	205	4.11	–	–
CC[C@H](C)[C@@H]1NC(=O)[C@H](Cc2ccc(OC)cc2)NC(=O)[C@H](Cc2ccc(N)nc2)NC(=O)[C@H](CC(N)=O)NC(=O)[C@H](Cc2c[nH]c3ncccc23)NC(=O)[C@H](C(C)C)NC(=O)[C@H](Cc2cccc(Cl)c2)N(C)C(=O)[C@H](C(C)C)NC(=O)[C@H](C)NC(=O)CSC[C@@H](C(=O)NCCOCCOCCOCCOCCC(N)=O)NC(=O)[C@H](Cc2ccc(O)cc2)N(C)C(=O)[C@H](Cc2ccncc2)NC(=O)[C@H](CCCCN2CCOCC2)NC(=O)[C@H](CCCNC(=N)N)NC(=O)[C@H]([C@@H](C)CC)NC1=O [compound 3] ({CH2CO}-AV[NMePhe(3-Cl)]V[Trp(7-aza)]N[3Pal(6-NH2)]Y(Me)IIR[Nle(6-morpholino)][4Pal][NMeY]C[PEG4]-NH2; thioether N-15)	16.1	2.63	–	–
CC[C@H](C)[C@@H]1NC(=O)[C@H](Cc2ccc(OCC(=O)N3CCN(CC(=O)O)CC3)cc2)NC(=O)[C@H](Cc2ccc(O)cc2)NC(=O)[C@H](CC(N)=O)NC(=O)[C@H](Cc2cn(CC(=O)O)c3ccccc23)NC(=O)[C@H](C(C)C)NC(=O)[C@H](Cc2cccc(Cl)c2)N(C)C(=O)[C@H](C(C)C)NC(=O)[C@H](C)NC(=O)CSC[C@@H](C(=O)NCCOCCOCCOCCOCCC(N)=O)NC(=O)[C@H](Cc2ccc(O)cc2)N(C)C(=O)[C@H](Cc2ccncc2)NC(=O)[C@H](CCCCN2CCOCC2)NC(=O)[C@H](CCC(=O)NC[C@H](O)[C@@H](O)[C@H](O)[C@H](O)CO)NC(=O)[C@H]([C@@H](C)CC)NC1=O [compound 40]	42.6	43.8	–	–
CC[C@H](C)[C@@H]1NC(=O)[C@H](Cc2ccc(OCC(=O)NC[C@H](O)[C@@H](O)[C@H](O)[C@H](O)CO)cc2)NC(=O)[C@H](Cc2ccc(O)cc2)NC(=O)[C@H](CC(N)=O)NC(=O)[C@H](Cc2c[nH]c3ncccc23)NC(=O)[C@H](C(C)C)NC(=O)[C@H](Cc2cccc(Cl)c2)N(C)C(=O)[C@H](C(C)C)NC(=O)[C@H](C)NC(=O)CSC[C@@H](C(=O)NCCOCCOCCOCCOCCC(N)=O)NC(=O)[C@H](Cc2ccc(O)cc2)N(C)C(=O)[C@H](Cc2ccncc2)NC(=O)[C@H](CCCCN2CCOCC2)NC(=O)[C@H](CCC(=O)NC[C@H](O)[C@@H](O)[C@H](O)[C@H](O)CO)NC(=O)[C@H]([C@@H](C)CC)NC1=O [compound 27]	15.4	3.03	–	–
CCC(CC)[C@@H]1NC(=O)[C@H](Cc2ccc(OCC(=O)O)cc2)NC(=O)[C@H](Cc2ccc(O)cc2)NC(=O)[C@H](CC(N)=O)NC(=O)[C@H](Cc2cn(CC(=O)O)c3ccccc23)NC(=O)[C@H](C(C)C)NC(=O)[C@H](Cc2cccc(Cl)c2)N(C)C(=O)[C@H](C(C)C)NC(=O)[C@H](C)NC(=O)CSC[C@@H](C(=O)NCCOCCOCCOCCOCCC(N)=O)NC(=O)[C@H](Cc2ccc(O)cc2)N(C)C(=O)[C@H](Cc2ccc(N)nc2)NC(=O)[C@H](CCCNC(=N)N)NC(=O)[C@H](CCC(N)=O)NC(=O)[C@H]([C@@H](C)CC)NC1=O [compound 102] ({CH2CO}-AV[NMePhe(3-Cl)]V[Trp(1-CH2COOH)]NYY(Carboxymethyl)[Nva(3-Et)]IQR[3Pal(6-NH2)][NMeY]C[PEG4]-NH2; thioether N-15)	–	–	76.4	9.81

Now from value to compound:

Kd ([1]; pH 6.0, single-cycle kinetics) [nM]	Kd ([2]; pH 7.4, single-cycle kinetics) [nM]	Kd [1, 3] [nM]	Kd [2, 4] [nM]	SMILES
3.1	0.391	–	–	CC[C@H](C)[C@@H]1NC(=O)[C@H](Cc2ccc(OCC(=O)O)cc2)NC(=O)[C@H](Cc2ccc(O)cc2)NC(=O)[C@H](CC(N)=O)NC(=O)[C@H](Cc2c[nH]c3ccccc23)N(C)C(=O)[C@H](C(C)C)NC(=O)[C@H](Cc2cccc(Cl)c2)N(C)C(=O)[C@H](C(C)C)NC(=O)[C@H](C)NC(=O)CSC[C@@H](C(=O)NCCOCCOCCOCCOCCC(N)=O)NC(=O)[C@H](Cc2ccc(C(=O)NCCOCCOCCOCCOCCC(=O)O)cc2)N(C)C(=O)[C@H](Cc2cccc(C(=O)O)c2)NC(=O)[C@H](CCCNC(=N)N)NC(=O)[C@H](CCCCN)NC(=O)[C@H]([C@@H](C)CC)NC1=O [compound 178] ({CH2CO}-AV[NMePhe(3-Cl)]V[NMeW]NYY(Carboxymethyl)IIKR[Phe(3-COOH)][NMePhe(4-COOH)](PEG4)C[PEG4]-NH2; thioether N-15)
–	–	271	59.1	CC[C@H](C)[C@@H]1NC(=O)[C@H](Cc2ccc(OCC(=O)O)cc2)NC(=O)[C@H](Cc2ccc(O)cc2)NC(=O)[C@H](CC(N)=O)NC(=O)[C@H](Cc2c[nH]c3ncccc23)NC(=O)[C@H](C(C)C)NC(=O)[C@H](Cc2cccc(Cl)c2)N(C)C(=O)[C@H](C(C)C)NC(=O)[C@H](C)NC(=O)CSC[C@@H](C(=O)NCCOCCOCCOCCOCCC(N)=O)NC(=O)[C@H](Cc2ccc(O)cc2)N(C)C(=O)[C@H](CCC(=O)NCCOCCOCCOCCOCCC(=O)O)NC(=O)[C@H](CCCNC(=N)N)NC(=O)[C@H](CCC(N)=O)NC(=O)[C@H]([C@@H](C)CC)NC1=O [compound 143] ({CH2CO}-AV[NMePhe(3-Cl)]V[Trp(7-aza)]NYY(Carboxymethyl)IIQRE(PEG4)[NMeY]C[PEG4]-NH2; thioether N-15)
–	–	15.3	5.19	CCC(CC)[C@@H]1NC(=O)[C@H](Cc2ccc(O)cc2)NC(=O)[C@H](Cc2ccc(O)cc2)NC(=O)[C@H](CC(N)=O)NC(=O)[C@H](Cc2c[nH]c3ccccc23)N(C)C(=O)[C@H](C(C)C)NC(=O)[C@H](Cc2ccccc2)N(C)C(=O)[C@H](C(C)C)NC(=O)[C@H](C)NC(=O)CSC[C@@H](C(=O)NCCOCCOCCOCCOCCC(N)=O)NC(=O)[C@H](Cc2ccc(C(=O)O)cc2)N(C)C(=O)[C@H](Cc2cccc(C(=O)NCCOCCOCCOCCOCCC(=O)O)c2)NC(=O)[C@H](CCCNC(=N)N)NC(=O)[C@H](CCCCN)NC(=O)[C@H]([C@@H](C)CC)NC1=O [compound 122] ({CH2CO}-AV[NMeF]V[NMeW]NYY[Nva(3-Et)]IKR[X1](PEG4)[NMePhe(4-COOH)]C[PEG4]-NH2; thioether N-15)
